Laboratory results reported in patent US4999374A, “Veterinary treatment” (priority 1987, dated 1991).
Values after ≈ are worked out from the molar mass of the structure shown. Values joined by “and” are separate entries in the source; they are usually repeats but may differ in a detail not shown here. Equal entries are not always repeated. Where two headings read alike, the source gives them in different places.

Columns and labels:
T. hyodysenteriae [1] = test: Comparative efficacy of M139603 and monensin in experimentally infected mice (Example 2, Table 2); type: in vivo, mice (strain MF-1); details: 25 ppm feed
Text: (§1) The infection leads to varying degrees of caecitis, the lesions of which are apparent in animals killed on or about the sixth day post-infection. Caecal specimens examined by bacteriological culture techniques applicable for enumeration of organisms reveal the presence of high populations of T.hyodysenteriae. This disease-model was used in experiments to compare the efficacy of M139603 with that of salinomycin, lasalocid and monensin in suppressing the infection.
(§2) In this study, the efficacy of M139603 was tested at 25 ppm feed and that of monensin (Eli Lilly) at 50 or 100 ppm. Groups of infected mice, five per group, were offered the drugs in the feed on five continuous days before killing. Caecal materials were subjected to bacteriological examination to enumerate the populations of viable treponemes per gram of material. […] The group mean in respect of the unmedicated groups was 7.9 cfu/g.

T. hyodysenteriae [2] = test: Comparative efficacy of M139603 and lasalocid in experimentally infected mice (Example 4, Table 4); type: in vivo, mice (strain MF-1); details: 20 ppm feed
Text: as §1, §2
In this study, the efficacy of M139603 was tested at 20 ppm feed and that of lasalocid (Hoffman la Roche) at 20, 40 and 80 ppm. The test procedures were similar to those above except for the size of the inoculum of T.hyodysenteriae (1.2×10^7 cfu) used in infecting each mouse. […] The mean (log10) counts of viable treponemes found in the caecal contents of the various groups were: 2.5 cfu/g caecum (139603 at 20 ppm), 7.35 cfu (lasalocid at 20 ppm), 7.45 cfu (lasalocid at 40 ppm), 3.81 cfu (lasalocid at 80 ppm) and 8.50 cfu (unmedicated control).

T. hyodysenteriae (P18a) = test: Efficacy of M139603 in preventing swine dysentery in pigs, experimental infection (Example 5, Table 5); type: in vivo; details: 25 ppm feed
Experimental: The efficacy of M139603 was tested at 25 ppm feed.
In this studY two groups (Gp.1 and Gp.2) of pigs, six per group, were experimentally infected with a pathogenic strain of T. hyodysenteriae (P18a, IRAD(Institute for Animal Health), Compton, Berks, U.K.) by oro-gastric inoculation of 50 ml of a culture suspension (1×10^7cfu/ml) of the organism into each animal. From post-infection day (PID) to PID 35 the animals in Gp. 1 were offered ad lib a feed comprising "Kwikwean" meal (Rank, Hovis, McDougall Research Ltd; containing no antibiotics) incorporated with M139603 at 25 ppm. Gp.2 remained on unmedicated feed throughout the trial. Drug efficacy was measured primarily on the basis of the number of diarrhoea or dysentery days in relation to pig-days within a group and on the average daily weight gain per pig, in each group over the period of the trial. The daily gain was calculated by dividing group gain at end of trial (PID 35) by the total number of pig-days from PID 1 to PID 35. […] In the experiment the pigs were exposed to high infective doses of the organism a day before the introduction of the drug. Under normal circumstances preventive dose-regimes are applied on animals at risk and not on those already infected.

T. hyodysenteriae [3] = test: Comparative efficacy of M139603 and salinomycin in experimentally infected mice (Example 3, Table 3); type: in vivo, mice (strain MF-1); details: 30 ppm feed
Text: as §1, §2
In this study, the efficacy of M139603 was tested at 30 ppm and that of salinomycin at 30, 40 or 60 ppm feed. The mouse-groups and test-procedureswere simi-ar to those applied under Example 2 above.

[4] = test system: T. hyodysenteriae strain "P18a"; test: Agar-dilution M.I.C. test of M139603 and analogues (Example 8, Table 8); type: cell-based, Treponema hyodysenteriae; details: Brachyspira hyodysenteriae, Isosensitest agar with 5% sheep-blood, anaerobic, 39° C., 48-72 hours
Experimental: T. hyodysenteriae strain "P18a" was used in both in vitro and in vivo tests as above.
Minimum inhibitory concentration test: An agar-dilution M.I.C. test procedure was applied in the study. The susceptibility of the bacterial strain was tested against a range of dilutions (0.3 mg; 0.1 mg; 0.03 mg; 0.01 mg and 0.003 mg/l medium) of each compound incorporated in plates of Isosensitest agar (Oxoid CM471) with 5% added sheep-blood. The plates, `spot-inoculated` (Steer's type multipoint inoculator) with a standard culture-suspension of the test strain, were incubated anaerobically at 39° C. for 48-72 hours before reading the results. The M.I.C. of each compound was read as the lowest concentration yielding no growth (no haemolysis) or a hazy growth (faint haemolysis) on the site of the spot-inoculation.

T. hyodysenteriae [5] = test: MIC of M139603 against thirteen T. hyodysenteriae isolates vs salinomycin and dimetridazole (Example 1, Table 1); type: cell-based, Treponema hyodysenteriae; details: for MIC: Brachyspira hyodysenteriae
Experimental: The minimum inhibitory concentration of M139603 was tested in parallel with dimetridazole (May & Baker) and the growth-promoting polyether antibiotic salinomycin (Hoechst) against thirteen strains of T. hyodysenteriae.

`CO[C@@H](C)[C@H]1C[C@H](C)[C@H]([C@@H](C)/C=C/[C@@H]2CC[C@@H](C)[C@H](/C(=C/[C@H]3CCC[C@@H](C)[C@@H]3[C@H](C)C(=O)C3=C(O)COC3=O)CO)O2)O1` [Analogue M139603, tetronasin] was tested, and the Suppression of infection (T. hyodysenteriae [1]) was “suppressed the infection”, the “Mean (log10) viable treponemes per gram caecum & contents” value (T. hyodysenteriae [1]; 5 days, group mean) was 0 log10 per gram and the “Viable treponemes per gram caecum & contents” value (T. hyodysenteriae [1]; 5 days, individual mice, limit of detection <1.0 × 10^2) was “negative”. For the same compound, the “Complete suppression of infection” value (T. hyodysenteriae [2]) was “completely suppressed the infection in two mice”, the “Efficacy compared with lasalocid at 80 ppm” value (T. hyodysenteriae [2]) was “greater than that of lasalocid at 80 ppm” and the “Mean (log10) viable treponemes per gram caecal contents” value (T. hyodysenteriae [2]; 5 days, group mean (table)) was 1.62 log10 per gram. For the same compound, the “Viable treponemes per gram caecal contents” value (T. hyodysenteriae [2]; 5 days, individual mice) was 0 per gram and 4.3 × 10^3 per gram and 3.0 × 10^2 per gram and 1.0 × 10^2 per gram, the “Mean (log10) count of viable treponemes in caecal contents” value (T. hyodysenteriae [2]; log10) was 2.5 cfu/g caecum and the “Reduction of T. hyodysenteriae populations” value (T. hyodysenteriae [2]; other three mice) was “markedly reduced”. For the same compound, the “Efficacy in preventing swine dysentery” value (T. hyodysenteriae (P18a)) was “preventing or minimising the incidence of swine dysentery”, the “Mortality (+ culls)” value (T. hyodysenteriae (P18a); 35 days, 6 pigs) was 0 and the Average daily weight-gain (T. hyodysenteriae (P18a); PID 1-35) was 0.62 kg. For the same compound, the Number diarrhoea/dysentery days (T. hyodysenteriae (P18a); PID 1-35) was 27 days, the Percent diarrhoea/dysentery days (T. hyodysenteriae (P18a); PID 1-35) was 12.9% and the “Average weight at termination” value (T. hyodysenteriae (P18a); start 18.8) was 40.5. For the same compound, the “Group weight at termination” value (T. hyodysenteriae (P18a); start 112 kg) was 243 kg, the Suppression of infection (T. hyodysenteriae [3]) was “suppressed the infection” and the “Mean (log10) viable treponemes per gram caecum & contents” value (T. hyodysenteriae [3]; 5 days, group mean) was 0 log10 per gram. The “Viable treponemes per gram caecum & contents” value (T. hyodysenteriae [3]; 5 days, individual mice) was “negative”, the MIC [4] was 0.01 µg/mL (≈ 0.0166 µM) and the MIC (T. hyodysenteriae [5]; isolate B78, read-out: MIC) was 0.5 µg/mL. The MIC (T. hyodysenteriae [5]; isolate S82/6, read-out: MIC) was 0.2 µg/mL, the MIC (T. hyodysenteriae [5]; isolate S82/7, read-out: MIC) was 0.2 µg/mL and the MIC (T. hyodysenteriae [5]; isolate S83/1, read-out: MIC) was under 0.1 µg/mL. It also gave an MIC (T. hyodysenteriae [5]; isolate S83/2, read-out: MIC) of 0.5 µg/mL, an MIC (T. hyodysenteriae [5]; isolate S83/5, read-out: MIC) of under 0.1 µg/mL and an MIC (T. hyodysenteriae [5]; isolate S85/1, read-out: MIC) of 0.2 µg/mL. For the same compound, the MIC (T. hyodysenteriae [5]; isolate S85/2, read-out: MIC) was 0.2 µg/mL, the MIC (T. hyodysenteriae [5]; isolate S85/3, read-out: MIC) was 0.2 µg/mL and the MIC (T. hyodysenteriae [5]; isolate S85/8, read-out: MIC) was 0.2 µg/mL. For the same compound, the MIC (T. hyodysenteriae [5]; isolate S85/9, read-out: MIC) was under 0.1 µg/mL, the MIC (T. hyodysenteriae [5]; isolate S86/1, read-out: MIC) was under 0.1 µg/mL and the MIC (T. hyodysenteriae [5]; isolate S86/2, read-out: MIC) was 0.2 µg/mL. For the same compound, the MIC (T. hyodysenteriae [5]; mean of 13 strains (table), read-out: Mean MIC) was 0.215 µg/mL and the “MIC compared with salinomycin (statistical analysis)” value (T. hyodysenteriae [5]; thirteen strains) was “significantly (p<0.001) lower MIC”.
